From patent publication US12485100B2, “Treatment of menstrual cycle-induced symptoms” (Period Pill BV, priority 2019, dated 2025)
“Also recorded” adds a separate entry of the source.

What was measured:
[1] = tested on: women with menstrual cycle-induced symptoms (e.g. PMS, PMDD); assay: Closed label trials of 3-MMC for menstrual cycle-induced symptoms (case reports of 11 women); type: in vivo, human
Excerpt: The following case studies exemplify some aspects of some embodiments of the methods of the present invention for treating perimenstrual disorders in subjects suffering at least one menstrual cycle-induced symptom by administering 3-MMC.
Detailed reports of 11 experiences of women with unlabeled (“pill”) 3-MMC for menstrual cycle-induced symptoms.
Between the second half of 2018 and the first months of 2019, eleven women participated in a blinded trial of 3-MMC (the “pill”) administered to alleviate their menstrual cycle-induced symptoms. The subjects tried different doses ranging from 12.5 mg. up to 50 mg.
Each one of the women used the 3-MMC for relief for at least two to three consecutive menstrual periods, with the number of trials varying from two to seven per woman, making a total of 45 trials.
Thus, the experience with 3-MMC for menstrual cycle-induced symptoms reported here is from […] separate trials.

[2] = animal models, cited from earlier work
[3] = 12.5 mg then 25 mg with an interval of five hours (Ana)
[4] = one dose of 12.5 mg plus one dose of 25 mg, total 37.5 mg
[5] = one dose of 12.5 mg, individual trials
[6] = one dose of 25 mg, individual trials
[7] = two doses of 12.5 mg (Ana: interval of five hours; Jenny: equivalent to 25 mg)
[8] = two doses of 25 mg, one hour interval, total 50 mg (Katy)

Structure (SMILES): CNC(C)C(=O)c1cccc(C)c1 (centres unmarked) [3-MMC, 3-methylmethcathinone]
- relief of symptoms at low dose (overview) ([1]; 12.5 mg): while not consistent, was often effective in providing relief of symptoms
- Psychological reaction [1, 3]: experienced less emotional distress and felt much calmer
- Side effects [1, 3]: an outbreak of acne
- Response summary of the subject ([1]; 37.5 mg dose): more aware of themself, more concentrated, energetic, daring, calmer, but they would still be irritated or angry; also recorded: Rebecca felt actually very good
- undesired side effects (overview) ([1]; 30-35 mg): some undesired side effects, such as tachycardia or temperature changes were occasionally more noticeable
- effect when administered in anticipation of symptoms ([1]; administration prior to symptom onset): can significantly reduce the intensity as well as duration of many menstrual cycle induced symptoms
- most commonly reported psychological and emotional effects ([1]; all subjects): enhanced their overall sense of well-being, increased energy levels, induced calmness and relaxation and heightened abilities of concentration; also recorded: a sense of relaxation and calm, often combined with heightened energy and ability to concentrate
- most commonly reported side effects ([1]; all subjects, 12.5-50 mg): tachycardia, sensation of body temperature changes (usually feeling warmer or sometimes colder) and sweating
- overall reported experience / relief of symptoms ([1]; eleven women, about 60 trials, doses 12.5 mg up to 50 mg): Ten out of the eleven reported a rather good to a very positive experience; also recorded: A desired positive effect was achieved with most trials; also recorded: provided relief from more than one of the reported menstrual cycle-induced symptoms
- side effects, individual subject's summary over all their doses ([1]; individual subjects, all doses taken): they never perceived non-desired side-effects; also recorded: increased heartbeat and stomach pain on empty stomach; also recorded: noticed body temperature changes; also recorded: an unfamiliar tingling at the back of the tongue and throat; also recorded: They experienced no side effects or physical reactions worth mentioning; also recorded: had no physical reactions or undesired side effects with any of the doses; also recorded: some light and non-desirable effects such as body temperature changes
- Psychological reaction [1, 4]: more willing to do things with an energetic flow that lasted up to four hours; also recorded: they could still sense anger and irritation, but now more in control; also recorded: They felt less irritated, less angry and more relaxed; also recorded: No perceived psychological effect; also recorded: felt very much calmer and much more relaxed than usual; also recorded: felt more awake, more energetic, more alive, therefore less tired and irritated
- Side effects [1, 4]: Accelerated heartbeat, dizziness, feeling hot and sweating and Accelerated heartbeat, sweating and lack of appetite and None and Sweating and appetite loss
- Psychological reaction [1, 5]: felt more emotionally stable after one hour, less oversensitive, less anxious and they had a slightly heightened mood and felt less depressed, not lethargic, down or exhausted anymore and They were no longer feeling down and exhausted and Exhaustion, feeling down, mood swings, feeling alone and helpless, over sensitive, powerlessness, forgetfulness, willing to cry and Experiencing less anxiety and nervousness, feeling calmer and not very focused, only a little and less irritable but not a major difference and more relaxed, less emotionally distressed and Calmer and more stable and less mood swings, less upset, less emotional and less tired and Ines felt calmer, less nervous and emotional and less distressed and tense and None (they felt no effect whatsoever with this small dose) and None and None, not better nor worse
- Side effects [1, 5]: perceived no negative physical reactions or side effects and Stomach pain and none and none (apart from feeling warmer) and Tingling tongue, light somnolence and None
- Psychological reaction [1, 6]: emotional distress, mood swings and anxiety decreased; also recorded: Ana felt calmer and more relaxed; also recorded: felt less angry and irritated; also recorded: they were more focused, having a heightened mood, they felt less helpless and more in control; also recorded: experienced no emotional distress or feeling down or any tension; also recorded: no longer feeling low, anxious or distressed; also recorded: feeling focused and motivated to study; also recorded: feeling focused and more concentrated; also recorded: they could focus and concentrate on their studies and was also more motivated; also recorded: they felt relaxed, calmer; also recorded: Fanny felt calmer and stable; also recorded: no longer feeling upset, felt a lot calmer; also recorded: Small, but transient improvement in their mood; also recorded: felt more relaxed, less tense; also recorded: feeling noticeably less upset and less sad; also recorded: Jenny felt better, less anxious, less unhappy; also recorded: felt better and more relaxed; also recorded: Her sadness faded away; also recorded: relief of the sadness, not down or stressed anymore; also recorded: experienced slightly less tension; also recorded: a bit calmer, after two hours very relaxed, not crying anymore
- Side effects [1, 6]: none and None and stomach ache (on an empty stomach) and a higher heart rate and Cold hands and feet and drowsiness and some muscle pain or tension and Temporal slight stomach and muscle pain and Perceived body temperature changes, tingling sensation in the throat and Difficulty to go to sleep and somewhat tired and body temperature changes
- interaction with paracetamol ([1]; one subject (Bea), 12.5 mg 3-MMC combined with paracetamol): did not experience any undesirable interactions with the 3-MMC; also recorded: without any noticeable substance interaction or undesired effect
- side effects with repeated use ([1]; repeated use): side-effects tend to diminish over time with repeated use of 3-MMC
- effect when administered after onset of symptoms ([1]; some subjects): 3-MMC was effective even when administered after the onset of menstrual cycle-induced symptoms
- effect on somatic symptoms ([1]; some subjects (e.g. headache, physical pain)): administration of 3-MMC resulted in disappearance of somatic symptoms (e.g. headache); also recorded: can also produce a reduction in somatic symptoms (e.g. physical pain); also recorded: some of the subjects reported alleviation of somatic symptoms
- perceived effect ([1]; subject Gertie, 40 mg in one intake): a bit too much
- perceived benefit ([1]; subject Gertie, doses between 10 mg and 20 mg): They didn't perceive any benefit
- perceived benefit ([1]; subject Gertie, doses between 20 and 30 mg): They felt positive effects
- response and psychological effects ([1]; subject Gertie, one or two pills a couple of days before menstruation, usual dose 20-25 mg): feels less tense; also recorded: they are able to take decisions again; also recorded: a radical positive life change
- response summary ([1]; subject Ines, alternating doses of 12.5 mg and 25 mg, seven occasions): The main effect was calming and relaxing; also recorded: no significant dose response has been observed
- Psychological reaction [1, 7]: their emotional distress, feeling down, mood swings, helplessness and anxiety declined; also recorded: felt more energized, no longer down or sad
- Side effects [1, 7]: none and None
- Psychological reaction [1, 8]: no longer angry although they could still feel irritated; also recorded: They experienced reduced irritability and anger; also recorded: felt more energetic, less irritated and after two hours they were very calm
- Side effects [1, 8]: Increased heartbeat, sweating and loss of appetite; also recorded: No noticeable side effects; also recorded: a brief period (one hour) of depression
- cumulative positive effect of repeated administration ([1]; two or more consecutive doses within about 24 hours of each other): taking the pill two consecutive days made the effect of the second one last longer; also recorded: Possibly a cumulative effect; also recorded: a sort of a cumulative positive effect; also recorded: the positive effects of 3-MMC reportedly persisted; also recorded: positive effects persist
- time of peak serum concentrations ([2]; after oral administration): 5 to 10 min
- apparent plasma half-life ([2]; after oral ingestion): approximately 0.8 hours
